Where two headings read alike, the source gives them in different places. Marks after values point to notes of the source that are not given here.
Columns and labels:
GRPR = target: T1, GRPR (Homo sapiens, UniProt P30550); assay: GRPR binding affinity and kinetics on PC-3 cells (LigandTracer); conditions: 1-3 nM radioligand
T1 construct: host or cells: PC-3 human prostate adenocarcinoma cells
Description: For evaluation of the receptor affinity and binding kinetics, PC-3 cells were seeded in 100 mm Nunc™ Petri dishes (Thermo Fisher, Waltham, MA, USA). A LigandTracer Yellow device (Ridgeview Instruments AB, Uppsala, Sweden) was used to measure the radiation from the Petri dish. Background with RPMI-1640 medium was measured for 30 min, after which 1 nM of radioligand was added and measured for 2 h. An additional concentration (3 nM) was measured for another 2 h, thereafter the medium was aspirated, replaced with fresh medium, and left running overnight to measure the dissociation rate. Data was fitted with the TracerDrawer software (Ridgeview Instruments AB, Uppsala, Sweden).

in vivo = assay: in vivo; design: species or system BALB/c nu/nu female mice; conditions: female, BALB/c nu/nu, mouse, iv, total radioactivity
Excerpt: (§1) Animal experiments were planned and performed in accordance with national legislation on protection of laboratory animals, and protocols were approved by the Ethics Committee for Animal Research in Uppsala, Sweden (5.8.18–00473/2021). BALB/c nu/nu female mice were xenografted by subcutaneous injection of PC-3 cells on the hind leg (7 × 10^6 cells/mouse). At the date of the experiment, approximately 6 weeks after implantation, tumour sizes reached 0.11 ± 0.05 g. Groups of four mice were used for each time point. In the first group, mice were iv injected with test radiopeptide (30 kBq in 100 µL PBS supplemented with 1% bovine serum albumin (BSA), corresponding to 40 pmol) and euthanized at 4 h pi. Tumors and relevant organs were collected, weighted and sample radioactivity was measured using the gamma counter. In the case of [^111In]In-AU-SAR-M1 two additional mice groups underwent the same procedure but were euthanized either at 24 h pi, or at 4 h pi following radioligand co-injection with excess (5 nmol) NOTA-PEG2-RM26 to determine the in vivo GRPR-specificity. For statistical analysis Two-Way Anova with Tuckey’s post hock analysis was employed, using GraphPad Prism 7 for Windows® (GraphPad Software, Boston, Massachusetts USA).

PC-3 xenografts = assay: in vivo; design: species or system BALB/c nu/nu female mice; conditions: mouse
Excerpt: as §1

[1] = 1:2 model for M1 and M3, 1:1 model for M2, read-out: KD1
[2] = 40 pmol, GI (gastrointestinal tract) uptake
[3] = 40 pmol, Small intestines uptake
[4] = 40 pmol, Tumor-to-kidneys ratio
[5] = 40 pmol, Tumor-to-pancreas ratio
[6] = female, BALB/c nu/nu, iv, 40 pmol, 4 h

T1 sequence (P30550 whole entry): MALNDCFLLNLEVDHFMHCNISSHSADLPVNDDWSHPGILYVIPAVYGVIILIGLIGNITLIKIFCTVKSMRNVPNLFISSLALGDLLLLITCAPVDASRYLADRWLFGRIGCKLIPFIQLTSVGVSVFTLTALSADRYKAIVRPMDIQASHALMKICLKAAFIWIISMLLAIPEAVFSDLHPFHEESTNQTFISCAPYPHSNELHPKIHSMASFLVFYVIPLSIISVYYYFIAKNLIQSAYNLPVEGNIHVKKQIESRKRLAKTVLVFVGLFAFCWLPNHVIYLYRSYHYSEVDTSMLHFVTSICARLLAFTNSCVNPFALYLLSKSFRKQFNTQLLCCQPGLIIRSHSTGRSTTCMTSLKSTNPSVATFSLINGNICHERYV

CCNC(=O)[C@H](CC(C)C)NC(=O)[C@H](Cc1c[nH]cn1)NC(=O)CN(C)C(=O)[C@@H](NC(=O)[C@H](C)NC(=O)[C@H](Cc1c[nH]c2ccccc12)NC(=O)[C@H](CCC(N)=O)NC(=O)[C@@H](Cc1ccccc1)NC(=O)COCC(=O)Nc1ccc(CNC(=O)CCC(C(=O)O)N2CCN(CC(=O)O)CCN(CC(=O)O)CCN(CC(=O)O)CC2)cc1)C(C)C (stereo partly drawn) [[^111In]In-AU-SAR-M1, [^111In]In-DOTAGA-AMA-DIG-DPhe-Gln-Trp-Ala-Val-Sar-His-Leu-NHEt, metal not drawn]
Kd (GRPR; [1]): 0.39 nM
Kd (GRPR; 1:2 model, read-out: KD2): 1.1 nM
tissue uptake at 4 h (in vivo; 40 pmol, Blood uptake): 0.08 ± 0.03 %ID/g
tissue uptake at 24 h (in vivo; 40 pmol, Blood uptake): 0.01 ± 0.001 %ID/g
tissue uptake at 4 h (in vivo; 40 pmol, Bone uptake): 0.3 ± 0.3 %ID/g
tissue uptake at 24 h (in vivo; 40 pmol, Bone uptake): 0.04 ± 0.02 %ID/g
tissue uptake dose at 4 h (in vivo; 40 pmol, Carcass uptake): 4 ± 2 %ID
tissue uptake dose at 24 h (in vivo; 40 pmol, Carcass uptake): 0.48 ± 0.07 %ID
tissue uptake dose at 4 h (in vivo; [2]): 2 ± 0.9 %ID
tissue uptake dose at 24 h (in vivo; [2]): 0.62 ± 0.49 %ID
tissue uptake at 4 h (in vivo; 40 pmol, Kidneys uptake): 3.1 ± 0.3 %ID/g
tissue uptake at 24 h (in vivo; 40 pmol, Kidneys uptake): 2.38 ± 0.14 %ID/g
tissue uptake at 4 h (in vivo; 40 pmol, Liver uptake): 0.2 ± 0.1 %ID/g
tissue uptake at 24 h (in vivo; 40 pmol, Liver uptake): 0.09 ± 0.01 %ID/g
tissue uptake at 4 h (in vivo; 40 pmol, Lungs uptake): 0.2 ± 0.2 %ID/g
tissue uptake at 24 h (in vivo; 40 pmol, Lungs uptake): 0.04 ± 0.003 %ID/g
tissue uptake at 4 h (in vivo; 40 pmol, Muscle uptake): 0.09 ± 0.06 %ID/g
tissue uptake at 24 h (in vivo; 40 pmol, Muscle uptake): 0.02 ± 0.01 %ID/g
tissue uptake at 4 h (in vivo; 40 pmol, Pancreas uptake): 2 ± 1 %ID/g
tissue uptake at 24 h (in vivo; 40 pmol, Pancreas uptake): 0.12 ± 0.03 %ID/g
tissue uptake at 4 h (in vivo; [3]): 0.8 ± 0.5 %ID/g
tissue uptake at 24 h (in vivo; [3]): 0.07 ± 0.03 %ID/g
tissue uptake at 4 h (in vivo; 40 pmol, Spleen uptake): 0.12 ± 0.05 %ID/g
tissue uptake at 24 h (in vivo; 40 pmol, Spleen uptake): 0.1 ± 0.04 %ID/g
tissue uptake at 4 h (in vivo; 40 pmol, Tumor uptake): 11 ± 1 %ID/g
tissue uptake at 24 h (in vivo; 40 pmol, Tumor uptake): 6.3 ± 0.8 %ID/g
tissue to tissue ratio at 4 h (in vivo; 40 pmol, Tumor-to-blood ratio): 160
tissue to tissue ratio at 24 h (in vivo; 40 pmol, Tumor-to-blood ratio): > 550
tissue to tissue ratio (in vivo; 40 pmol, Tumor-to-bone ratio): > 150
tissue to tissue ratio at 4 h (in vivo; 40 pmol, Tumor-to-bone ratio): 74 ± 68
tissue to tissue ratio at 24 h (in vivo; 40 pmol, Tumor-to-bone ratio): 173 ± 72
tissue to tissue ratio at 4 h (in vivo; [4]): 3.6 ± 0.2
tissue to tissue ratio at 24 h (in vivo; [4]): 2.7 ± 0.2
tissue to tissue ratio at 4 h (in vivo; 40 pmol, Tumor-to-liver ratio): 65 ± 22
tissue to tissue ratio at 24 h (in vivo; 40 pmol, Tumor-to-liver ratio): 67 ± 6
tissue to tissue ratio at 4 h (in vivo; 40 pmol, Tumor-to-lungs ratio): 68 ± 39
tissue to tissue ratio at 24 h (in vivo; 40 pmol, Tumor-to-lungs ratio): 174 ± 29
tissue to tissue ratio at 4 h (in vivo; 40 pmol, Tumor-to-muscle ratio): 167 ± 102
tissue to tissue ratio at 24 h (in vivo; 40 pmol, Tumor-to-muscle ratio): 375 ± 95
tissue to tissue ratio at 4 h (in vivo; [5]): 9 ± 11
tissue to tissue ratio at 24 h (in vivo; [5]): 57 ± 18
tissue to tissue ratio at 4 h (in vivo; 40 pmol, Tumor-to-spleen ratio): 61 ± 19
tissue to tissue ratio at 24 h (in vivo; 40 pmol, Tumor-to-spleen ratio): 70 ± 20
tissue uptake dose at 4 h (in vivo; Carcass uptake): 1.1 ± 0.6 %ID
tissue uptake dose at 4 h (in vivo; GI (gastrointestinal tract) uptake): 1.5 ± 0.3 %ID
Tumor-to-blood ratio (PC-3 xenografts; [6]): 141 ± 61^a
Tumor-to-pancreas ratio (PC-3 xenografts; [6]): 8 ± 7
Tumor-to-blood ratio (PC-3 xenografts; female, BALB/c nu/nu, iv, 40 pmol, 24 h): 557 ± 58^ a
Decrease of tumor uptake from 4 h to 24 h pi (PC-3 xenografts): ~40%
Increase of tumor-to-muscle ratio from 4 h to 24 h pi (PC-3 xenografts): about 1.8 fold
Initial pancreas uptake remaining at 24 h pi (PC-3 xenografts): 5%
Tumor uptake at 24 h pi as % of the 4 h pi value (PC-3 xenografts): 57%

CCNC(=O)[C@H](CC(C)C)NC(=O)[C@H](Cc1c[nH]cn1)NC(=O)CN(C)C(=O)[C@@H](NC(=O)[C@H](C)NC(=O)[C@H](Cc1c[nH]c2ccccc12)NC(=O)[C@H](CCC(N)=O)NC(=O)[C@@H](Cc1ccccc1)NC(=O)COCC(=O)Nc1ccc(CNC(=O)[C@H](CCCNC(=N)N)NC(=O)CCC(C(=O)O)N2CCN(CC(=O)O)CCN(CC(=O)O)CCN(CC(=O)O)CC2)cc1)C(C)C (stereo partly shown) [[^111In]In-AU-SAR-M2, [^111In]In-[DOTAGA-Arg]AU-SAR-M1, metal not drawn]
Kd (GRPR; [1]): 0.031 nM
tissue uptake at 4 h (in vivo; 40 pmol, Blood uptake): 0.08 ± 0.01 %ID/g
tissue uptake at 4 h (in vivo; 40 pmol, Bone uptake): 0.23 ± 0.04 %ID/g
tissue uptake dose at 4 h (in vivo; 40 pmol, Carcass uptake): 4 ± 2 %ID
tissue uptake dose at 4 h (in vivo; [2]): 2.9 ± 0.3 %ID
tissue uptake at 4 h (in vivo; 40 pmol, Kidneys uptake): 3.4 ± 0.4 %ID/g
tissue uptake at 4 h (in vivo; 40 pmol, Liver uptake): 0.3 ± 0.1 %ID/g
tissue uptake at 4 h (in vivo; 40 pmol, Lungs uptake): 0.2 ± 0.1 %ID/g
tissue uptake at 4 h (in vivo; 40 pmol, Muscle uptake): 0.09 ± 0.04 %ID/g
tissue uptake at 4 h (in vivo; 40 pmol, Pancreas uptake): 9 ± 2 %ID/g
tissue uptake at 4 h (in vivo; [3]): 2.4 ± 0.9 %ID/g
tissue uptake at 4 h (in vivo; 40 pmol, Spleen uptake): 0.3 ± 0.1 %ID/g
tissue uptake at 4 h (in vivo; 40 pmol, Tumor uptake): 12.7 ± 0.8 %ID/g
tissue to tissue ratio at 4 h (in vivo; 40 pmol, Tumor-to-blood ratio): 159 ± 32
tissue to tissue ratio at 4 h (in vivo; 40 pmol, Tumor-to-bone ratio): 58 ± 12
tissue to tissue ratio at 4 h (in vivo; [4]): 3.8 ± 0.6
tissue to tissue ratio at 4 h (in vivo; 40 pmol, Tumor-to-liver ratio): 47 ± 14
tissue to tissue ratio at 4 h (in vivo; 40 pmol, Tumor-to-lungs ratio): 63 ± 22
tissue to tissue ratio at 4 h (in vivo; 40 pmol, Tumor-to-muscle ratio): 161 ± 74
tissue to tissue ratio at 4 h (in vivo; [5]): 1.4 ± 0.3
tissue to tissue ratio at 4 h (in vivo; 40 pmol, Tumor-to-spleen ratio): 46 ± 11
Tumor-to-small intestines ratio (PC-3 xenografts): 6 ± 2

CCNC(=O)[C@H](CC(C)C)NC(=O)[C@H](Cc1c[nH]cn1)NC(=O)CN(C)C(=O)[C@@H](NC(=O)[C@H](C)NC(=O)[C@H](Cc1c[nH]c2ccccc12)NC(=O)[C@H](CCC(N)=O)NC(=O)[C@@H](Cc1ccccc1)NC(=O)COCC(=O)Nc1ccc(CNC(=O)[C@@H](CCCNC(=N)N)NC(=O)CCC(C(=O)O)N2CCN(CC(=O)O)CCN(CC(=O)O)CCN(CC(=O)O)CC2)cc1)C(C)C (stereo partly shown) [[^111In]In-AU-SAR-M3, [^111In]In-[DOTAGA-DArg]AU-SAR-M1, metal not drawn]
Kd (GRPR; [1]): 0.3 nM
Kd (GRPR; read-out: KD2, 1:2 model): 1.1 nM
tissue uptake at 4 h (in vivo; 40 pmol, Blood uptake): 0.05 ± 0.01 %ID/g
tissue uptake at 4 h (in vivo; 40 pmol, Bone uptake): 0.17 ± 0.04 %ID/g
tissue uptake dose at 4 h (in vivo; 40 pmol, Carcass uptake): 2.1 ± 0.2 %ID
tissue uptake dose at 4 h (in vivo; [2]): 0.7 ± 0.2 %ID
tissue uptake at 4 h (in vivo; 40 pmol, Kidneys uptake): 5 ± 0.5 %ID/g
tissue uptake at 4 h (in vivo; 40 pmol, Liver uptake): 0.25 ± 0.02 %ID/g
tissue uptake at 4 h (in vivo; 40 pmol, Lungs uptake): 0.15 ± 0.03 %ID/g
tissue uptake at 4 h (in vivo; 40 pmol, Muscle uptake): 0.07 ± 0.03 %ID/g
tissue uptake at 4 h (in vivo; 40 pmol, Pancreas uptake): 0.5 ± 0.1 %ID/g
tissue uptake at 4 h (in vivo; [3]): 0.2 ± 0.2 %ID/g
tissue uptake at 4 h (in vivo; 40 pmol, Spleen uptake): 0.18 ± 0.03 %ID/g
tissue uptake at 4 h (in vivo; 40 pmol, Tumor uptake): 6.7 ± 0.3 %ID/g
tissue to tissue ratio at 4 h (in vivo; 40 pmol, Tumor-to-blood ratio): 147 ± 43
tissue to tissue ratio at 4 h (in vivo; 40 pmol, Tumor-to-bone ratio): 41 ± 9
tissue to tissue ratio at 4 h (in vivo; [4]): 1.4 ± 0.1
tissue to tissue ratio at 4 h (in vivo; 40 pmol, Tumor-to-liver ratio): 27 ± 3
tissue to tissue ratio at 4 h (in vivo; 40 pmol, Tumor-to-lungs ratio): 47 ± 14
tissue to tissue ratio at 4 h (in vivo; 40 pmol, Tumor-to-muscle ratio): 107 ± 63
tissue to tissue ratio at 4 h (in vivo; [5]): 14 ± 3
tissue to tissue ratio at 4 h (in vivo; 40 pmol, Tumor-to-spleen ratio): 39 ± 8
Tumor-to-small intestines ratio (PC-3 xenografts): 25 ± 7
